Earlier results as cited in PMC10534093 (Food Chemistry: X, 2023).

target: α-glucosidase; conditions: ref Zhang, Wang, & Li, 2016

| Substance | IC50 against α-glucosidase |
| --- | --- |
| NSPR | 93 µg/mL |

tested on: ACE; conditions: Table 2; ref BIOPEP-UWM and AHTPDB

| Substance | Known activity in the database |
| --- | --- |
| EGEQPRPFPFP | ACE inhibitor |
| PIYSNKLGKFF | ACE inhibitor |
| QIGLF [reference compound] | ACE inhibitor |
| DRDSYNLHPGDAQRIPAGTTY | ACE inhibitor |
| DRPSIGNLAGANSLLNALP | ACE inhibitor |
| PSSPFTDLWDPRRVGD | ACE inhibitor |
| NNPFKFLVPPQESQKR | ACE inhibitor |
| RPSIGNLAGANSLLNALP | ACE inhibitor |
| PSEVEAVFKPLGPEVGELRV | ACE inhibitor |
| YEAGVVPPGARFEPPR | ACE inhibitor |
| IGTLAGANSLLNALP | ACE inhibitor |
| RPSIGNLAGANSLLNALPE | ACE inhibitor |
| PFSFLVPPQESQR | ACE inhibitor |
| TPMIGTLAGANSLLNALP | ACE inhibitor |
| PLDLTSFVLH | ACE inhibitor |
| VISQIPSQVQELAFPG | ACE inhibitor |
| WGPLVNPESQQGSPR | ACE inhibitor |

tested on: ACE; conditions: ref Kheeree et al., 2020

| Substance | IC50 against ACE |
| --- | --- |
| GPAGPAGL | 8 µg/mL |

same assay, conditions: ref Sitanggang, Putri, Palupi, Hatzakis, & Budijanto, 2021

| Substance | IC50 against ACE |
| --- | --- |
| IPPGVPYWT | 400 µg/mL |

same assay, conditions: ref Tu et al., 2018

| Substance | IC50 against ACE |
| --- | --- |
| NMAINPSKENLCSTFCK | 2830 µg/mL |

same assay, conditions: reference peptide; ref Yu, Zhao, Liu, Lu, & Chen, 2011

| Substance | IC50 against ACE |
| --- | --- |
| QIGLF [reference compound] | 420 µg/mL |

tested on: α-glucosidase; conditions: Table 1; ref BIOPEP-UWM and AHTPDB

| Substance | Known activity in the database |
| --- | --- |
| TFSEYPPLGR | Alpha-glucosidase inhibitor |
| IVTVEGGLSVISPKW | Alpha-glucosidase inhibitor |
| IQAEGGLT [reference compound] | Alpha-glucosidase inhibitor |
